From paper PMC5915149, “The role of oxidative stress in activity of anticancer thiosemicarbazones” (Oncotarget, 2018)
Where two headings read alike, the source gives them in different places.

Legend:
HCT116 [1] = experiment: MTS antiproliferative assay, HCT116 (with or without added metal ions); format: cell-based, human; settings: 96 h
Protocol: (§1) The cells were seeded in 96-well plates (Nunc) at a density of 3,500 cells/well (HCT116 and MCF-7) and 3,000 cells/well (NHDF) and incubated at 37° C for 24 h. The assay was performed following a 96 h incubation with varying concentrations of the compounds that were being tested. Then, 20 µL of CellTiter 96® AQueous One Solution-MTS (Promega) was added to each well (with 100 µL DMEM without phenol red) and incubated for 1 h at 37° C. The optical densities of the samples were analyzed at 490 nm using a multi-plate reader (Synergy 4, Bio Tek). Results were expressed as a percentage of the control and calculated as the inhibitory concentration (IC50) values (using GraphPad Prism 5). The IC50 parameter was defined as the compound concentration that was necessary to reduce the proliferation of cells to 50% of the untreated control. Each individual compound was tested in triplicate in a single experiment with each experiment being repeated three or four times.
(§2) The HCT116 and MCF-7 cells were seeded in 96-well plates (Nunc) at a density of 3,500 cells/well and incubated at 37° C for 24 h. The MTS assay was performed following a 96 h incubation with varying concentrations of the tested compounds. Additionally, a 20 µM solution of CuSO4, FeSO4 or FeCl3 was added into wells with the tested compounds. The results were expressed as a percentage of the control and calculated as the inhibitory concentration (IC50) values using GraphPad Prism 5. Each individual compound was tested in triplicate in a single experiment with each experiment being repeated three times.

MCF-7 = experiment: MTS antiproliferative assay, MCF-7 (with or without added metal ions); format: cell-based, human
Protocol: as §1, §2

HCT116 cells = experiment: Time dependent measurement of ROS level; format: cell-based, human; settings: 1 µM; 3, 6, 9, 12, 24 h
Protocol: To determine the intracellular levels of ROS, HCT116 cells were seeded onto black 96-well plates (Corning) at a density of 9,000 cells/well and incubated at 37° C. After an overnight incubation, the solutions of the tested compounds: 1a-c, 2 a-b, 3 a-c, Dp44mT (1 μM) and DOX (5 μM) were added and incubated for 3, 6, 9, 12, and 24 h in a kinetic experiment. The generation of ROS was measured using a CellROX® Green Reagent (Molecular Probes™). Additionally, the quantity of cells in each well was determined using Hoechst 33342 (Molecular Probes™). The solutions of the tested compounds were removed and 100 µL of CellROX Green Reagent and Hoechst 33342 at a final concentration of 5 μM were added to each well. Then, the cells were incubated for 30 min at 37° C. The fluorescence was measured using a multi-plate reader (Synergy 4, Bio Tek) at 485 nm excitation and a 520 nm emission for CellROX Green Reagent and a 345 nm excitation laser and a 485 nm emission filter for Hoechst 33342. The experiments were performed three to four times. ROS levels were expressed as the percentage of the control cells level.

Ndrg1 = experiment: mRNA expression (Real-Time PCR) of Ndrg1; format: cell-based, human; settings: HCT116, TSC 1 µM, 12 h
Protocol: The HCT116 cells were seeded in 3 cm Petri dishes (Nunc) at a density of 0.5·10^6 cells/well and incubated overnight. Next, the medium was removed and solutions of TSC (1 μM) and DOX (5 μM) were added. After 12 or 24 h, total RNA was isolated from the cells using TRIzol Reagent (Ambion) according to the manufacturer’s instructions. cDNA synthesis was performed with 5 μg of total RNA using a GoScript™ Reverse Transcriptase kit (Promega) and Oligo(dT)23 Primers (Sigma). The Real-Time PCR was performed with a CTX96 Touch™ Real-Time PCR Detection System (Biorad) in a 20 μL reaction volume. The reaction consisted of PowerUp™ SYBR® Green Master Mix (Applied Biosystems), a primer pair mix (0.5 μM each) and 1 μL of cDNA. All primer pair sequences were purchased from Sigma-Aldrich and are listed in Supplementary Table 2. The experiment was performed under the following conditions: initial denaturation at 95° C for 120 sec; followed by 40 denaturation cycles at 95° C, 15 sec; annealing (primer-specific temperature for 30 sec) and extension at 72° C for 60 sec. Data was analyzed based on a comparison of the expression of the target genes to a reference gene – β-actin, using the 2^–ΔΔCT method. The experiments were performed at least three times.

cdc2 = experiment: Western blot of cdc2; format: cell-based, human; settings: HCT116, 1 µM
Protocol: The HCT116 cells were seeded in 3 cm Petri dishes (Nunc) at a density of 0.5·10^6 cells/well and incubated overnight. The next day, solutions of TSC (1 μM) and DOX (5 μM) were added and the cells incubated for 24 or 48 h. Cells were harvested by trypsinization and washed with cold PBS. Next, the cells were centrifuged and suspended in an RIPA buffer (Thermo Scientific) containing Halt Protease Inhibitor Cocktail (Thermo Scientific), Halt Phosphatase Inhibitor Cocktail (Thermo Scientific) along with 0.5 M EDTA and lysed for 20 min on ice. Then, the lysates were sonicated, centrifuged at 10,000 rpm for 10 min at 4° C and the supernatants were collected for further analysis. The protein concentration was determined using a Micro BCA™ Protein Assay Kit (Thermo Scientific) according to the manufacturer’s instructions. Equal amounts of the proteins (20 μg) were electrophoresed on SDS-Page gels and transferred onto a nitrocellulose membranes. The membranes were blocked in 5% non-fat milk prepared in PBS containing 0.1% Tween-20 (TPBS) for 1 h. After blocking, the membranes were incubated with specific primary antibodies: cdc2 (#POH1, Cell Signaling), p21^Waf1/Cip1 (#12D1, Cell Signaling), p53 (#1C12, Cell Signaling) and β-Actin (#8H10D10, Cell Signaling) overnight at 4° C, then washed and incubated with horseradish peroxidase (HRP)-conjugated secondary antibodies for 1h at room temperature. All of antibodies were diluted 1:1000 in 5% milk in TPBS. Finally, the membranes were washed and incubated with a SuperSignal™ West Pico Chemiluminescent Substrate (Thermo Scientific). The chemiluminescence signals were captured using a ChemiDoc™ XRS+ System (BioRad). The experiments were performed at least three times. Densitometric analysis was performed using ImageJ 1.41 software (Wayne Rasband, National Institutes of Health, USA).

HCT116 [2] = system: HCT116; design: method as in PMID 25329549; settings: 96 h incubation, MTS; cited from earlier work

With `S=C(NN=C(c1ccccn1)c1ccccn1)N1CCN(c2ccccc2)CC1` [Compound 3a] the IC50 (HCT116 [1]; 20 µM CuSO4 added, read-out: Activity - IC50 HCT116+ Cu^2+) was 0.68 ± 0.15 nM, the IC50 (HCT116 [1]; 20 µM FeCl3 added, read-out: Activity - IC50 HCT116+ Fe^3+) was 2.07 ± 0.78 nM and the IC50 (MCF-7; 96 h, 20 µM CuSO4 added, read-out: Activity - IC50 MCF-7+ Cu^2+) was 1.55 ± 0.55 nM. For the same compound, the IC50 (MCF-7; 96 h, 20 µM FeCl3 added, read-out: Activity - IC50 MCF-7+ Fe^3+) was 8.96 ± 1.81 nM, the IC50 (MCF-7; 96 h incubation, MTS, read-out: Activity - IC50 MCF-7) was 12 ± 2.04 nM and the “improvement in cytotoxicity after interacting with Cu^2+” value (MCF-7; MCF-7 cells, 20 µM CuSO4) was “eight-fold”. For the same compound, the “level of ROS, normalized to untreated cells” value (HCT116 cells) was “strongest effect”, the “mRNA expression of Ndrg1” value (Ndrg1) was “significant increase” and the “expression of cdc2 protein (densitometric analysis)” value (cdc2) was “increased the expression”. The IC50 (HCT116 [2]) was 0.81 ± 0.13 nM.
